Experimental data published in PMC6015222, “Targeting Phosphopeptide Recognition by the Human BRCA1 Tandem BRCT Domain to Interrupt BRCA1-Dependent Signaling” (Cell Chemical Biology, 2018).
“Also recorded” adds a separate entry of the source.

Columns and labels:
[1] = target: T1, TOPBP1 tBRCT 7/8 (Homo sapiens, UniProt Q92547); experiment: Competitive MST selectivity: TOPBP1 7/8; type: binding
T1 construct: TOPBP1 tBRCT 7/8 residues 1264–1493; made in house; host or cells: E. coli BL21(DE3*)
Experimental: Protein domains used in the assay were labeled with NT-647-NHS fluorescent dye using the Monolith NT™ Protein Labeling Kit (NanoTemper Technologies). Assays were carried out in 20mM Tris buffer, pH 7.4, with 200mM NaCl, 0.05% Tween-20 and 2mM DTT. For the direct binding assay, 10μl of labeled protein at a final concentration of 20nM was mixed with 10μl of test compound and incubated on ice for 10 min. For the competitive assay, 10μl of labeled protein at a final concentration of 20nM was mixed with 2μM cognate peptide substrate at the EC80 concentration determined by prior titration using a 16-point serial dilution by direct-binding MST. For both assays, samples prepared as above were centrifuged at 15000 rpm at 4°C for 10 min and 4μl of the supernatant was loaded into premium glass capillaries (NanoTemper Technologies). MST analysis was performed at MST power of 40% and LED power of 80%, at 22°C temperature using a Monolith NT.115 (NanoTemper Technologies). An initial “Capillary Scan” was performed to scan for fluorescence across the length of the capillary tray to determine the exact position of each capillary before the MST measurement was started. Test compounds were assayed at 16 different concentrations by serial dilution, and data were analysed using NanoTemper analysis software. Kd values were determined using “T-jump + Thermophoresis” settings. […]

[2] = system: cells; experiment: Cellular effects of Bractoppin, summary over the cell assays; type: cell-based
[3] = system: BRCA1 foci; experiment: Radiation-induced nuclear BRCA1 foci, high-content imaging, HEK293 cells; type: cell-based, human; settings: 100 μM added 6 hr after 16 Gy, staining 18 hr after irradiation
Experimental: (§1) HEK293 cells stably harboring plasmids for Tet-inducible expression of tBRCT domains were seeded at 30,000 cells/well on Matrigel-coated 96-well plates, and treated as indicated. Cells were fixed in 2.5% PFA, for 20’ at RT and incubated in 1x PBS with 10% FBS plus 0.5% TritonX-100 for 1 h for blocking and permeabilization. Primary antibody staining was performed at the indicated dilutions in PBST-BSA buffer (0.7mg/ml BSA, 0.05% Tween-20 in 1XPBS) for 1h at RT. Cells were then extensively washed in PBST-BSA buffer and stained with goat-anti-mouse Alexa 488 secondary antibody (Invitrogen), at 1:1000 dilution along with 2.5μg/ml DAPI for nuclear staining. […] Images were acquired on a high-content imaging platform (Cellomics ArrayScan VTI HCS Reader (Thermo Fisher Scientific)) using a 40x objective. On average ∼800 fields from 6-well replicates, containing a total of ∼10-20K cells were imaged per treatment group and quantified using image analysis software (in-house algorithms using MatLab and commercially available HCS studio 2.0 from Thermo Fisher Scientific). […] Cut-off values for foci number per cell specifying the maximal difference between control and irradiated samples were determined to calculate the percentage of cells positive for radiation-induced foci. […]

[4] = system: HEK293 cells; experiment: Cell viability after 1 Gy irradiation (calcein AM dye and cell counting); type: cell-based, human; settings: 1–100 μM added 1 hr before 1 Gy, viability 7 days later
Experimental: HEK293 cells stably harboring plasmids for Tet-inducible expression of tBRCT domains were seeded at a density of 60,000 cells/35mm dish. Compound addition or inducible expression of BRCA1 tBRCT were performed as indicated, when cells were ∼30% confluent, before exposure to 1Gy irradiation. Cells were replenished with media every 3rd day for 7 days, re-suspended in cell dissociation buffer, which was neutralized in 1x PBS. Cells were mixed thoroughly to ensure single cell suspension before measurement of viability using Calcein AM dye and/or cell counting with a hemocytometer. Cell survival fractions were measured using fluorescence readout of Calcein AM with the Tecan Infinite M1000 Pro reader (485nm excitation and 515nm emission) and data were normalized to untreated controls across treatment groups.

[5] = system: RAD51 foci; experiment: Radiation-induced nuclear RAD51 foci; type: cell-based, human; settings: 100 μM, 16 Gy, as Figure 5A
Experimental: as §1

[6] = system: MDC1 foci; experiment: Radiation-induced nuclear MDC1 foci, HEK293 cells; type: cell-based, human; settings: 100 μM added 6 hr after 16 Gy
Experimental: as §1

T1 sequence (Q92547 1264-1493): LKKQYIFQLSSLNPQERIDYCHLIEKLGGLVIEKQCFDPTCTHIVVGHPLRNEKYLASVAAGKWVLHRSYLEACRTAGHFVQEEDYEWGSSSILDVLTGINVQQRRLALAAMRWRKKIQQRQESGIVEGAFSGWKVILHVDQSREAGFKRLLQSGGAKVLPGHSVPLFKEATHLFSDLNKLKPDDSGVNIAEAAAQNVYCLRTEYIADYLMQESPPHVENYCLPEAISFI

Compound: O=C(c1ccc2nc(-c3ccccc3)[nH]c2c1)N1CCN(Cc2ccccc2F)CC1 [Bractoppin, (4-(2-fluorobenzyl)piperazin-1-yl) (2-phenyl-1H-benzo[d]imidazol-6-yl) methanone]
- binding to fluorescently labeled TOPBP1 7/8 tBRCT domain [1]: does not detectably bind
- concentration at which cellular effects are elicited [2]: 10 to 100 µM
- effect on formation of radiation-induced BRCA1 foci [3]: inhibits the formation of radiation-induced BRCA1 foci; also recorded: selectively inhibits damage-induced BRCA1 foci formation
- effect on cytotoxicity induced by exposure to 1 Gy IR [4]: significantly enhances cytotoxicity
- effect on IR-induced RAD51 foci [5]: selectively suppresses
- effect on radiation-induced accumulation of MDC1 at sites of DNA damage [6]: little effect
